Assay results as given in patent US20140079785A1, “COMPOSITION COMPRISING LIPID NANOPARTICLES AND A CORTICOSTEROID OR VITAMIN D DERIVATIVE” (priority 2011, published 2014).

How the values were obtained:
[1] = test system: IL-1β, IL-4, IL-8, IL-10 and IL-12; assay: Cytokine level in ear tissue (MSD mouse TH1/TH2 9-plex); type: in vivo, mice; conditions: upon treatment with BMV
Description: The remaining ear tissue from the 8 mm biopsy was cut into two halves, one of which was tape stripped before analysing the drug concentration and the other was used for cytokine analysis. Both were snap-frozen in liquid nitrogen and stored at −80° C. until the analysis was carried out.
The ear tissue was homogenized in 200 μl lysis buffer using a Precellys® 24 tissue homogenizer with a Cryolys cooling unit from Bertin Technologies (Montigny-le-Bretonneux, France). The lysis buffer was composed of 1 mM Na3VO4, 0.4% (v/v) nonyl phenoxypolyethoxylethanol (NP40) and the protease inhibitor Complete™ from Roche Diagnostics (Mannheim, Germany) dissolved in PBS. […] The supernatant was kept at −80° C. until the MSD® cytokine assay was performed. A determination of the total protein concentration was performed to normalize the sample concentration before the cytokine determination. […] Specific level of the cytokines IFN-γ, IL-1-β, IL-2, IL-4, IL-5, IL-8, IL-10, IL-12 total and TNF-α in the ear tissue were determined with a MSD® mouse TH1/TH2 9-plex Multi-Spot® 96-well 10 spot plate using a MSD® Sector Imager 6000 (Meso Scale Discovery, Gaithersburg, Md., USA). The MSD® assay was optimized for tissue use. […] Washing was repeated 3 times with 0.05% (v/v) polysorbate 20 before finally adding 150 μl read buffer diluted 1:2 in MilliQ water and reading the plate on the MSD® Sector Imager 6000.

[2] = In vitro skin penetration and permeation of 3H BMV, Franz type diffusion cells; type: in vitro ADME, porcine; conditions: barrier-impaired versus intact skin, applied in SLN
Description: The porcine ears were obtained from newly slaughtered pigs from the Danish Meat Trade College (Roskilde, Denmark). The ears were stored at −20° C. and thawed slowly at 4° C. before shaving and removing full-thickness skin from the back of the ears using a scalpel. Subcutaneous tissue was carefully removed with a scalpel and the skin was cut into appropriate pieces before freezing at −20° C. until use (after no more than 14 days). Two skin pieces were obtained from each ear, and they were balanced with respect to intact and barrier-impaired skin.
Skin barrier impairment was induced by 25 successive tape strippings applying D-Squame® tape discs (Cuderm Corp., Dallas, USA). 225 g/cm^2 pressure on the tape was applied with a D-Squame® tape applicator for 5 sec. (Cuderm Corp., Dallas, USA). […]
Penetration profiles of BMV and lipid were evaluated. ^3H-labelled BMV and ^14C-labelled lipid were used to study the penetration of BMV and lipid particles (distearate and tripalmitate) into intact and barrier-impaired skin.
The skin was mounted on Franz type diffusion cells with the dermis side facing the receptor medium (diffusion area 3.14 cm^2, recipient volume 10 ml, constant stirring, temperature kept at 32° C.). […] The exact amount of formulation applied was determined by weighing the spatula before and after application. After complete incubation, the skin was separated and analyzed. […]

increase in BMV penetration [2]: 3-60 fold
SMILES: CCCCC(=O)O[C@]1(C(=O)CO)[C@@H](C)C[C@H]2[C@@H]3CCC4=CC(=O)C=C[C@]4(C)[C@@]3(F)[C@@H](O)C[C@@]21C [BMV, Betamethasone-17-Valerate]
concentration of IL-5 and TNF-α [1]: below the detection limit
